Reference: patent US20220402984A1, “LYSIN-ANTIMICROBIAL PEPTIDE (AMP) POLYPEPTIDE CONSTRUCTS, LYSINS, ISOLATED POLYNUCLEOTIDES ENCODING SAME AND USES THEREOF” (priority 2018, published 2022)
Where two headings read alike, the source gives them in different places.

How the values were obtained:
[1] = tested on: carbapenem-resistant P. aeruginosa strains; format: cell-based, Pseudomonas aeruginosa
Experimental: Such resensitization may be determined by combining the present lysins or lysin-AMP polypeptide constructs with an antibiotic in a checkerboard assay as described herein. Antibiotic-resistant bacteria, such as carbapenem-resistant P. aeruginosa, are added to the lysin or lysin-AMP polypeptide construct combination. […] See Clinical and Laboratory Standards Institute (CLSI), CLSI. […] M100 Performance Standards for Antimicrobial Susceptibility Testing; 29th Edition. Clinical and Laboratory Standards Institute, Wayne, Pa., which is herein incorporated by reference in its entirety.
Up to seven carbapenem-resistant isolates were assessed. […] See Clinical and Laboratory Standards Institute (CLSI), CLSI. […] M100 Performance Standards for Antimicrobial Susceptibility Testing; 29th Edition. Clinical and Laboratory Standards Institute, Wayne, Pa.

[2] = tested on: P. aeruginosa isolate CFS 1558 (PA20); assay: Rabbit pulmonary model establishment: inoculum and meropenem static dose; format: in vivo; conditions: for Bacterial Burden, Kidneys / Bacterial Burden, Lung 1 / Bacterial Burden, Lung 2 / Bacterial Burden, Spleen: sacrificed 18-24 hours after last dose
Text: 3×10^9 CFU of the P. aeruginosa isolate was used to challenge the rabbits during the efficacy study described below.

[3] = tested on: Staphylococcus aureus; assay: Daptomycin MIC in […] (positive control); format: cell-based; conditions: S. aureus
Experimental: As a positive control, the impact of […] ® on daptomycin (DAP) activity against Staphylococcus aureus was also tested.

[4] = tested on: P. aeruginosa (strain WC-452); assay: 21-day serial passage resistance assay; format: cell-based, Pseudomonas aeruginosa; conditions: over 18 days
Experimental: […]. An analysis of bacterial resistance was performed using P. aeruginosa (strain WC-452) over 21 days of serial passage in the presence of a GN-lysin dilution series (in duplicate). […] The well with the highest concentration of GN lysin in which bacterial growth was seen was then used as the inoculum for the next day's passage, and the process was repeated over a 21 day period. The MIC at each daily time-point was recorded, and resistance was measured as a step-wise increase in MIC.

[5] = Meropenem 10 mg/kg, three times a day subcutaneous for two days
[6] = Meropenem 20 mg/kg, three times a day subcutaneous for two days
[7] = Meropenem 30 mg/kg, three times a day subcutaneous for two days
[8] = Meropenem 40 mg/kg, three times a day subcutaneous for two days

C[C@@H](O)[C@H]1C(=O)N2C(C(=O)O)=C(SCCN=CN)C[C@H]12 [Imipenem, imipenem]
Antibiotic MIC Alone ([1]; IPM + GN351 vs. WC-452): 16 (R)
Antibiotic MIC Alone ([1]; IPM + GN370 vs. WC-452): 16 (R)
Antibiotic MIC Alone ([1]; IPM + GN428 vs. WC-452): 16 (R)

C[C@@H](O)[C@H]1C(=O)N2C(C(=O)O)=C(S[C@@H]3CN[C@H](C(=O)N(C)C)C3)[C@H](C)[C@H]12 [Meropenem, meropenem]
Antibiotic MIC Alone ([1]; MEM + GN351 vs. WC-452): 16 (R)
Antibiotic MIC Alone ([1]; MEM + GN370 vs. WC-452): 16 (R)
Antibiotic MIC Alone ([1]; MEM + GN428 vs. WC-452): 16 (R)
Bacterial Burden, Kidneys [2, 5]: 4.36 ± 0.43 log10 CFU/g
Bacterial Burden, Lung 1 [2, 5]: 7.39 ± 0.34 log10 CFU/g
Bacterial Burden, Lung 2 [2, 5]: 7.42 ± 0.64 log10 CFU/g
Bacterial Burden, Spleen [2, 5]: 4.01 ± 0.10 log10 CFU/g
Bacterial Burden, Kidneys [2, 6]: 4.51 ± 0.73 log10 CFU/g
Bacterial Burden, Lung 1 [2, 6]: 6.85 ± 1.09 log10 CFU/g
Bacterial Burden, Lung 2 [2, 6]: 6.97 ± 1.19 log10 CFU/g
Bacterial Burden, Spleen [2, 6]: 4.74 ± 0.57 log10 CFU/g
Bacterial Burden, Kidneys ([2]; Meropenem 25 mg/kg): 2.06 ± 0.58 log10 CFU/g
Bacterial Burden, Lung 1 ([2]; Meropenem 25 mg/kg): 4.55 ± 1.65 log10 CFU/g
Bacterial Burden, Lung 2 ([2]; Meropenem 25 mg/kg): 3.73 ± 1.03 log10 CFU/g
Bacterial Burden, Spleen ([2]; Meropenem 25 mg/kg): 2.15 ± 0.78 log10 CFU/g
Bacterial Burden, Kidneys [2, 7]: 2.24 ± 0.64 log10 CFU/g
Bacterial Burden, Lung 1 [2, 7]: 4.83 ± 1.19 log10 CFU/g
Bacterial Burden, Lung 2 [2, 7]: 4.42 ± 1.14 log10 CFU/g
Bacterial Burden, Spleen [2, 7]: 1.97 ± 0.63 log10 CFU/g
Bacterial Burden, Kidneys [2, 8]: 2.34 ± 0.65 log10 CFU/g
Bacterial Burden, Lung 1 [2, 8]: 4.66 ± 0.11 log10 CFU/g
Bacterial Burden, Lung 2 [2, 8]: 2.95 ± 1.19 log10 CFU/g
Bacterial Burden, Spleen [2, 8]: 1.93 ± 0.47 log10 CFU/g
meropenem dosage establishing a static effect ([2]; three times a day, subcutaneous, two days, rabbits): 20 mg/kg

daptomycin
fold increase in MIC ([3]; 0.09% SURVANTA): 32
fold increase in MIC ([3]; 0.19% SURVANTA): 32
fold increase in MIC ([3]; 1.56% SURVANTA): 128
fold increase in MIC ([3]; 3.15% SURVANTA): 128

O=C(O)c1cn(C2CC2)c2cc(N3CCNCC3)c(F)cc2c1=O [Ciprofloxacin]
increase in MIC during serial passage [4]: 16 fold
